This is an account of results in patent publication US20230052298A1, “LACTIC ACID BACTERIUM FERMENTATION PROMOTER” (MEIJI CO., LTD., priority 2019, published 2023).

The subject of test [1] is L. delbrueckii subsp. bulgaricus 2038. As to the kind of experiment: Test Example 2-1: organic acid concentrations after fermentation (HPLC). The following applies: strain 2038. The format is cell-based, Lactobacillus delbrueckii subsp. bulgaricus. Here is the method: The fermentation was carried out using a fermentation medium (raw material milk). The fermentation medium was prepared by adding formic acid to the 10% reduced skim milk medium so as to give a final concentration of 1 mM, and then sterilizing the mixture at 95° C., and was used. […] In the above fermentation medium, a lactic acid bacterial starter of […] was inoculated at 0.5% (with respect to the amount of fermentation medium), statically cultured at 40° C., and fermented. The fermentation time was the time required for the medium to reach pH 4.6. The measurement of the organic acid concentration after the completion of fermentation was carried out as follows. An aliquot of 0.4 g of the fermentate obtained (fermented milk) was diluted by 2-fold with pure water, 20 μL of Carrez's Reagent I (53.5% (w/v) zinc sulfate) was added thereto and the mixture was vortexed, and 20 μl of Carrez's Reagent II (17.2% (w/v) potassium ferrocyanide) was added thereto and the mixture was vortexed. The resulting mixture was centrifuged at 4° C., 20620 g for 10 minutes, and the supernatant was filtered through a 0.22 μm filter and the filtrate was analyzed under the conditions shown in Table 2.

The subject of the next test is L. rhamnosus. As to the kind of experiment: Test Example 5: organic acid concentrations after fermentation. In kind it is cell-based, Lactobacillus rhamnosus. Conditions: 1 mM added. Here is the method:
The measurement of the organic acid concentration after the completion of fermentation was carried out as follows. An aliquot of 0.4 g of the fermentate obtained (fermented milk) was diluted by 2-fold with pure water, 20 μL of Carrez's Reagent I (53.5% (w/v) zinc sulfate) was added thereto and the mixture was vortexed, and 20 μl of Carrez's Reagent II (17.2% (w/v) potassium ferrocyanide) was added thereto and the mixture was vortexed. The resulting mixture was centrifuged at 4° C., 20620 g for 10 minutes, and the supernatant was filtered through a 0.22 μm filter and the filtrate was analyzed under the conditions shown in Table 2. [table] The measurement of the organic acid concentration after the completion of fermentation by L. rhamnosus and L. salivarius in Test Example 3 or 4 was carried out in the same manner as in Test Example 2-1. The addition of malic acid or fumaric acid promoted production of succinic acid by L. rhamnosus and L. salivarius.

Test [2] concerns Lactobacillus delbrueckii subsp. bulgaricus. The test can be described thus: Test Example 2-2: organic acid concentration in fermentate at completion of fermentation, formic acid medium. Conditions: 1 mM additive, 1 mM formic acid medium. The format is cell-based. Here is the method:
The strains shown in Tables 6 and 7 were precultured in the preculture medium and then used. The activation medium used was a 10 mass % reduced skim milk medium containing 0.1 mass % yeast extract, sterilized at 121° C. for 7 minutes. Here, the 10 mass % reduced skim milk medium is a 10 mass % aqueous solution of skim milk powder (fat 1 mass %, protein 34 mass %, lactose 54 mass %, ash 8 mass %, non-fat milk solid 96 mass %) (manufactured by Meiji Co., Ltd.) (in the above medium, lactose 5.4 mass %, non-fat milk solid 9.6 mass %). Frozen bacteria were added to the above-mentioned activation medium in an amount of 0.1 mass % (with respect to the amount of the activation medium) and statically cultured at 37° C. for 16 hours to obtain an activation solution. An aliquot of 0.1 mass % of the activation solution obtained (with respect to the amount of activation medium) was added to another activation medium, and the mixture was allowed to stand at 37° C. for 16 hours to obtain a lactic acid bacterial starter. Then, fermentation was carried out using a fermentation medium as raw material milk. The fermentation medium was prepared by adding formic acid to the 10 mass % reduced skim milk medium so as to give a final concentration of 1 mM, and then sterilizing the mixture at 95° C., and was used. […] The pH of the fermentation medium was about 6.4. The lactic acid bacterial starter of each strain obtained above was inoculated into the fermentation medium in an amount of 2.5 mass % (with respect to the amount of the fermentation medium), statically cultured at 40° C., and fermented. The fermentation time was the time required for the medium to reach pH 4.6. The pH value was measured using a commercially available pH meter.

Setting [3] is: No addition of L. delbrueckii subsp. bulgaricus.

`O=C(O)/C=C/C(=O)O` [Fumaric acid, fumaric acid]: the entries for the “Concentration of fumaric acid” value in test [1] (1 mM added) and in test [2] (setting [3]) were 0.00 mM and 1.11 mM, respectively. Further, the “Concentration of malic acid” value was 0.00 mM in test [1] (1 mM added) and 0.11 mM in test [2] (setting [3]). Moreover, the figures for the “Concentration of succinic acid” value (with L. rhamnosus; in test [2] (setting [3])) were 1.39 mM and 0.07 mM, respectively. For the same compound, the “Concentration of succinic acid in fermentate at completion of fermentation (pH 4.6)” value (“Concentration of succinic acid … (pH 4.6)” for short) was 1.67 mM in test [2] (strain 2038); 1.73 mM in test [2] (strain OLL1073R-1); 1.58 mM in test [2] (strain OLL1171); 1.72 mM in test [2] (strain OLL1247); 1.49 mM in test [2] (strain OLL1255); 1.54 mM in test [2] (strain OLL205013). In addition, the “Concentration of succinic acid … (pH 4.6)” value in test [2] (strain P1902901) stood at 1.59 mM. Moreover, the “Concentration of fumaric acid in fermentate at completion of fermentation (pH 4.6)” value in test [2] (strain OLL1255) is listed as 0.15 mM.
Regarding `O=C(O)CC(O)C(=O)O` (stereo not drawn) [Malic acid, malic acid], the “Concentration of fumaric acid” value in test [1] (1 mM added) is reported as 0.00 mM; in test [1] (10 mM added), 0.03 mM; in test [1] (50 mM added), 0.21 mM. The “Concentration of malic acid” value in test [1] (1 mM added) came out at 0.00 mM; in test [1] (10 mM added), 4.27 mM; in test [1] (50 mM added) it was 42.05 mM; in test [2] (setting [3]), 0.99 mM. The “Concentration of succinic acid” value in test [1] (1 mM added) is listed as 1.94 mM; in test [1] (10 mM added) it was 5.78 mM; in test [1] (50 mM added) it was 9.84 mM; in test [2] (setting [3]), 0.08 mM. Further, the “Concentration of succinic acid … (pH 4.6)” value in test [2] (strain 2038) worked out at 1.71 mM; in test [2] (strain OLL1073R-1), 1.67 mM; in test [2] (strain OLL1171), 1.57 mM; in test [2] (strain OLL1247), 1.67 mM; in test [2] (strain OLL1255), 1.03 mM; in test [2] (strain OLL205013), 1.55 mM. Further, the “Concentration of succinic acid … (pH 4.6)” value in test [2] (strain P1902901) is on record as 1.59 mM. Moreover, in test [2] (strain OLL1255), the “Concentration of malic acid in fermentate at completion of fermentation (pH 4.6)” value is recorded as 0.35 mM.
